Source: patent publication US20180228861A1, “COMPOSITION FOR TREATING DIABETES AND DYSLIPIDEMIA OBTAINED FROM THE EXTRACT OF COSTUS PICTUS D.DON PLANT AND A METHOD OF PREPARING THE SAME” (ARJUNA NATURAL EXTRACTS, LTD., priority 2012, published 2018)

Columns and labels:
[1] = tested on: streptozotocin-induced Type 1 diabetic model in Wistar rats; assay: Blood glucose level in streptozotocin-induced Type 1 diabetic model; format: in vivo; conditions: extracts 40 mg/kg orally, glibenclamide 3 mg/kg orally
Method: Evaluation of effect of different fractions of fresh leaves of Costus pictus D. Donon streptozotocin-induced Type 1 diabetic model in Wistar rats.
(§1) The study was conducted in adult male Wistar rats weighing 200-250 gm for a period of 40 days (30 days of treatment and 10 days of induction). The animals were randomly divided into seven groups comprising six each. Diabetes was induced in all the groups except the normal control group by the intra peritoneal administration of streptozotocin at 50 mg/kg. After the induction of diabetes, one group was kept as diabetic untreated control and a positive control was maintained in which the animals were treated with standard drug, glibenclamide at 3 mg/kg orally. […] The effect of the different fractions was assessed by measuring the fasting blood glucose level, post prandial blood glucose level, serum insulin levels and glycosylated Hb. The anti hyperlipidemic effect was assessed by the estimation of total cholesterol, triglyceride, LDL cholesterol, HDL cholesterol, VLDL, muscle glycogen and liver glycogen. The antioxidant effects of the different extracts were assessed by the measuring TBARS, superoxide dismutase (SOD), catalase, reduced glutathione (GSH) and glutathione peroxidase levels (GPx). TBARS was determined by TBA assay (Ohkawa et al., 1979), SOD was measured using the nitroblue tetrazolium reduction method (Kakkar et al., 1984), Catalase was assayed using the method described by Aebi (1974). GPx was measured as described by Flohe and Gunzler (1984), GSH was measured as per the method of Jollow et al., (1974). Histopathological examination of pancreas was conducted to assess the antidiabetic effect of the different fractions of Costus pictus D. Don.
Group 3—Positive control—diabetic animals treated with glibenclamide at 3 mg/kg orally.
Group 4—diabetic animals treated with methanolic extract of fresh leaves of Costus pictus D. Don, the extract has low oxalic acid and/or oxalates content (Sample 2 prepared as per Example 1) at 40 mg/kg orally. […]

[2] = tested on: streptozotocin-induced Type 1 diabetic model in Wistar rats; assay: Muscle and liver glycogen in streptozotocin-induced diabetic rats; format: in vivo; conditions: extracts 40 mg/kg orally, glibenclamide 3 mg/kg orally
Method: as §1, with “mg/kg.” for “mg/kg. After the induction of diabetes, one group was kept as diabetic untreated control and a positive control was maintained in which the animals were treated with standard drug, glibenclamide at 3 mg/kg orally.”

[3] = tested on: streptozotocin-induced Type 1 diabetic model in Wistar rats; assay: Insulin and glycosylated Hb levels in streptozotocin-induced diabetic rats; format: in vivo; conditions: extracts 40 mg/kg orally, glibenclamide 3 mg/kg orally
Method: as §1, with “mg/kg.” for “mg/kg. After the induction of diabetes, one group was kept as diabetic untreated control and a positive control was maintained in which the animals were treated with standard drug, glibenclamide at 3 mg/kg orally.”

[4] = tested on: streptozotocin-induced Type 1 diabetic model in Wistar rats; assay: Pancreatic histopathology in streptozotocin-induced diabetic rats; format: in vivo; conditions: for beta cell staining in islet of Langerhans (immune histochemistry, in words): FIG. 13-17
Method: as §1, with “mg/kg.” for “mg/kg. After the induction of diabetes, one group was kept as diabetic untreated control and a positive control was maintained in which the animals were treated with standard drug, glibenclamide at 3 mg/kg orally.”

[5] = tested on: isolated mouse islets; assay: In vitro insulin secretogogue effect using isolated mouse islets; format: cell-based, mice (Swiss albino strain); conditions: 10 nM
Text: In vitro insulin secretogogue effect of the different fractions of Costus pictus D. Don using isolated mouse islets.
Four to six weeks old male mice (Swiss albino strain; weighing 25±2 g) used for the study were maintained in the optimum environmental conditions.
Pancreata isolated from animals which were euthanized with CO2 anesthesia according the method of Shewadae et al., (1999) was removed aspectically. Washed thrice with Hank's Balanced Salt Solution (HBSS) and were subjected to collagenase digestion at 37° C. The pancreata was incubated in the dissociation medium (Dulbecco's modified minimum essential medium (DMEM) supplemented with collagenase, Soybean Trypsin Inhibitor and Bovine Serum Albumin fraction V) for 10 minutes. The procedure was repeated thrice and the dissociation was stopped by addition of chilled DMEM with 10% fetal bovine serum to the pancreatic digest. The mixture was centrifuged at 200×g for 10 minutes and the supernatant was discarded. After two washings with DMEM, the pellet was seeded in culture flasks containing DMEM pH-7.2 supplemented with 10% fetal bovine serum. The flasks were incubated at 37° C. in a CO2 incubator.
The viability of the islets was checked by Trypan blue dye exclusion test (Warburton and James, 1995) and this estimate had shown >98% of the cells were viable. […]

COc1ccc(Cl)cc1C(=O)NCCc1ccc(S(=O)(=O)NC(=O)NC2CCCCC2)cc1 [glibenclamide]
blood glucose levels, 0th day ([1]; 0th day): 321 mg/dL | blood glucose levels, 15th day ([1]; 15th day): 126 mg/dL | blood glucose levels, 30th day ([1]; 30th day): 71 mg/dL | Liver glycogen [2]: 46 mg/g tissue | Muscle glycogen [2]: 8 mg/g tissue | Glycosylated Hb [3]: 0.5 % total Hb | Insulin level [3]: 13 μU/ml | beta cell staining in islet of Langerhans (immune histochemistry, in words) ([4]; pancreas of streptozotocin-induced diabetic rats): moderately stained and comparable to group 1 | beta cell staining in islet of Langerhans (immune histochemistry, in words) ([4]; pancreas of streptozotocin-induced diabetic rats, listed as Glibenclamide): moderately stained beta cells | mean number of islets ([4]; pancreas of streptozotocin-induced diabetic rats, normal group 36, untreated diabetic group 5): 18.66 | appearance of islets in pancreas sections (in words) ([4]; versus untreated diabetic control): less shrunken than the untreated diabetic control group | Thirty minutes Concentration of insulin ([5]; thirty minutes): 3.77 ng/mL | Zero minutes Concentration of insulin ([5]; zero minutes): 0.97 ng/mL
